Test results from patent US20210071137A1, “PRODUCTION METHOD FOR CELL MASS INCLUDING NEURAL CELLS/TISSUE AND NON-NEURAL EPITHELIAL TISSUE, AND CELL MASS FROM SAME” (SUMITOMO CHEMICAL COMPANY, LIMITED, priority 2017, published 2021).

How the values were obtained:
[1] = test system: Human ES cells (KhES-1 strain); assay: Effect of each Wnt signal transduction pathway inhibiting substance on production of cell mass containing neural tissue and nonneural epithelial tissue (Example 7); format: cell-based; conditions: inhibitor added from start of suspension culturing (IWP-2 2 or 5 μM, C-59 2 μM, IWP-L6 1 or 10 μM, LGK974 1 or 5 μM, KY 02111 1 or 5 μM, XAV939 1 μM) with SB-431542 1 μM; BMP4 1.5 nM on day 2; bright field observation day 10
Method: Human ES cells (KhES-1 strain) were cultured under feeder-free conditions according to the method described in Scientific Reports, 4, 3594 (2014). As the feeder-free medium, StemFit medium was used and, as the feeder-free scaffold, Laminin 511-E8 was used. Specific maintenance culturing operation was performed in the same manner as in Example 1.
The thus-prepared subconfluent human ES cells were washed with PBS, subjected to an enzyme treatment using Accumax, a mukessei medium medium for differentiation induction was added, and the cells were scraped from the surface of the culture dish by using a cell scraper and dispersed into single cells by pipetting. Thereafter, the aforementioned human ES cells dispersed into single cells were suspended in 100 μl of a serum-free medium at 1.2×10^4 cells per well of a non-cell-adhesive 96-well culture plate (PrimeSurface 96V-bottom plate, manufactured by SUMITOMO BAKELITE), and cultured in suspension under the conditions of 37° C., 5% CO2. As the serum-free medium (gfCDM+KSR) therefor, a serum-free medium which is a 1:1 mixture of F-12+Glutamax medium and IMDM+Glutamax medium supplemented with 5% Knockout Serum Replacement, 450 μM 1-mono thioglycerol, 1× Chemically defined lipid concentrate, 50u/ml penicillin-50 μg/ml streptomycin was used. At the time of the start of suspension culturing (day 0 from the start of suspension culturing, start of step 1), Y27632 (final concentration 20 μM) and SB-431542 (1 μM) were added to the aforementioned serum-free medium. As the Wnt signal transduction pathway inhibiting substance, IWP-2 (manufactured by Tocris Bioscience, 2 or 5 μM), C-59 (manufactured by Cayman Chemicals, 2 μM), IWP-L6 (manufactured by AdooQ bioscience, 1 or 10 μM), LGK974 (manufactured by Cayman Chemicals, 1 or 5 μM), KY 02111 (manufactured by Cayman Chemicals, 1 or 5 μM), or XAV939 (manufactured by Cayman Chemicals, 1 μM) was added at the start of the suspension culturing, and the condition with the addition of DMSO alone as a control of no addition of a Wnt signal transduction pathway inhibiting substance was performed. Thereafter, a serum-free medium not containing Y27632 and containing each Wnt signal transduction pathway inhibiting substance, SB-431542 and BMP4 was added at 100 μl per well on day 2 from the start of suspension culturing. BMP4 was added at 3 nM to the medium so that the final concentration in the well could be 1.5 nM. A half amount of the medium was changed with a serum-free medium not containing Y27632 or BMP and containing each Wnt signal transduction pathway inhibiting substance and SB-431542 on day 6 from the start of suspension culturing. Bright field observation was performed under an inverted microscope (manufactured by KEYENCE CORPORATION, BIOREVO) on day 10 from the start of suspension culturing (FIGS. 8A-K).

[2] = test system: Human ES cells (KhES-1 strain); assay: Effect of compound pre-treatment before differentiation induction on quality grade of cell masses (Example 8); format: cell-based; conditions: day 15 of differentiation induction; for number of Grade 1 cell masses (near spherical, not less than 80% of circumference coated with nonneural epithelium) / number of Grade 2 cell masses (80% to 40% of circumference coated with nonneural epithelium, or distorted shape) / number of Grade 3 cell masses (nonneural epithelium on surface not more than 40%): of 32 cell masses, pre-treatment 6 days after seeding (300 nM SAG and/or 5 μM SB-431542)
Method: Human ES cells (KhES-1 strain) were cultured under feeder-free conditions according to the method described in Scientific Reports, 4, 3594 (2014). As the feeder-free medium, StemFit medium was used and, as the feeder-free scaffold, Laminin 511-E8 was used. Specific maintenance culturing operation was performed in the same manner as in Example 1. Cells under 4 conditions were prepared including conditions in which, when the cultured cells are used for differentiation induction, nothing is simultaneously added with medium change with […] medium (Control), conditions in which 300 nM SAG alone is added (+300 nM SAG), conditions in which 5 µM SB-431542 alone is added (+5 μM SB-431542), and conditions in which SAG and SB431542 are simultaneously added (+SAG/SB) at 6 days after seeding. The next day of the above-mentioned treatment, human ES cells under 4 conditions that reached subconfluence were each subjected to differentiation induction by suspension culturing into a cell mass containing neural tissue and nonneural epithelial tissue according to the method described in Example 1. Thereafter, on day 15 of differentiation induction, bright field observation was performed using an inverted microscope (manufactured by KEYENCE CORPORATION, BIOREVO). The cell masses formed after each pre-treatment were evaluated in three stages of cell masses with near spherical form in which not less than 80% of the whole circumference is coated with nonneural epithelium (Grade 1, e.g.-FIG. 9A); cell masses in which 80% to 40% of the whole circumference is coated with nonneural epithelium, or with a distorted shape (Grade 2, e.g.-FIG. 9B); and cell masses in which the proportion of nonneural epithelium on the cell mass surface is not more than 40% (Grade 3, e.g.=FIG. 9C).

Cc1cc(-c2ccc(CC(=O)Nc3ccc(-c4cccnc4)cc3)cc2)ccn1 [C-59]
formation of cell mass having nonneural epithelial tissue on the surface [1]: a cell mass having nonneural epithelial tissue on the surface was formed

Cc1ccc2nc(NC(=O)CSc3nc4c(c(=O)n3-c3ccccc3)SCC4)sc2c1 [IWP-2]
formation of cell mass having nonneural epithelial tissue on the surface [1]: a cell mass having nonneural epithelial tissue on the surface was formed

O=C(CSc1nc2c(c(=O)n1-c1ccccc1)SCC2)Nc1ccc(-c2ccccc2)cn1 [IWP-L6]
formation of cell mass having nonneural epithelial tissue on the surface [1]: a cell mass having nonneural epithelial tissue on the surface was formed

COc1ccc(CCC(=O)Nc2nc3ccc(Cl)cc3s2)cc1OC [KY02111]
formation of cell mass having nonneural epithelial tissue on the surface [1]: a cell mass having nonneural epithelial tissue on the surface was formed

Cc1cc(-c2ncc(CC(=O)Nc3ccc(-c4cnccn4)cn3)cc2C)ccn1 [LGK974]
formation of cell mass having nonneural epithelial tissue on the surface [1]: a cell mass having nonneural epithelial tissue on the surface was formed

CNC1CCC(N(Cc2cccc(-c3ccncc3)c2)C(=O)c2sc3ccccc3c2Cl)CC1 (stereo not shown) [SAG, N-Methyl-N′-(3-pyridinylbenzyl)-N′-(3-chlorobenzo[b]thiophene-2-carbonyl)-1,4-diaminocyclohexane]
number of Grade 1 cell masses (near spherical, not less than 80% of circumference coated with nonneural epithelium) [2]: 10
number of Grade 2 cell masses (80% to 40% of circumference coated with nonneural epithelium, or distorted shape) [2]: 18
number of Grade 3 cell masses (nonneural epithelium on surface not more than 40%) [2]: 4

NC(=O)c1ccc(-c2nc(-c3ccc4c(c3)OCO4)c(-c3ccccn3)[nH]2)cc1 [SB-431542, 4-(5-benzol[1,3]dioxol-5-yl-4-pyridin-2-yl-1H-imidazol-2-yl)-benzamide]
number of Grade 1 cell masses (near spherical, not less than 80% of circumference coated with nonneural epithelium) [2]: 28
number of Grade 2 cell masses (80% to 40% of circumference coated with nonneural epithelium, or distorted shape) [2]: 4
number of Grade 3 cell masses (nonneural epithelium on surface not more than 40%) [2]: 0
proportion of Grade 1 cell masses as compared to Control with no treatment ([2]; pre-treatment 6 days after seeding): drastically improved

Oc1nc(-c2ccc(C(F)(F)F)cc2)nc2c1CSCC2 [XAV939]
formation of cell mass having nonneural epithelial tissue on the surface [1]: a cell mass having nonneural epithelial tissue on the surface was formed
